Data on 17 compounds can be found in ChEMBL document CHEMBL1138393, “Structure-activity relationships of novel non-competitive mGluR1 antagonists: a potential treatment for chronic pain” (Bioorg Med Chem Lett, 2007).

One series is described as follows: Lipophilicity, log D of the compound. Format: physicochemical. Particulars: octanol/water.
With `CCCCN(C)c1cncc(C(=O)NC2CCCCCC2)n1`, the logD is 3.8.

As for `CC(C)(CNC(=O)c1cnc(N2CCC(CO)CC2)cn1)c1ccccc1`, the logD was determined as 3.5.

In turn, `O=C(NCC1CC1)c1cncc(NCCc2cccc(O)c2)n1` returned a logD of 3.2.

For the compound `C[C@H]1CC[C@H](NC(=O)c2cnc(N3CCCCC3)cn2)CC1`, the logD worked out at 4.4.

The compound `C[C@H]1CC[C@H](NC(=O)c2cnc(N3CCC(CO)CC3)cn2)CC1` registered a logD of 3.3.

On to `O=C(NCC1CC1)c1cncc(N2CCCN(Cc3ccccc3)CC2)n1`, for which the logD was 3.

Turning to `CC(C)(CNC(=O)c1cncc(N[C@@H](CO)c2ccccc2)n1)c1ccccc1`, the logD is 3.6.

`CC(C)(CNC(=O)c1cnc(N2CCCCC2)cn1)c1ccccc1` registered a logD of 4.5.

The compound `CC(C)(CNC(=O)c1cnc2ccccc2n1)c1ccccc1` returned a logD of 4.

Consider `CN(CCC#N)c1cnc(C(=O)NCC(C)(C)c2ccccc2)cn1`, for which the logD worked out at 2.9.

For `CC(CN(C)C)N(C)c1cnc(C(=O)NCC(C)(C)c2ccccc2)cn1` (stereo not drawn), the log distribution coefficient (logD) was found to be 2.

`CN(CCO)c1cncc(C(=O)NCC(C)(C)c2ccccc2)n1` had a logD of 2.7.

In the case of `CC(C)(CNC(=O)c1cnc(-c2ccccc2)cn1)c1ccccc1`, the logD amounted to 3.4.

Compound `CC(C)(CNC(=O)c1cncc(-c2ccccc2)n1)c1ccccc1` gave a logD of 2.6.

As for `O=C(NC1CCCCCC1)c1cnc(N2CCCCC2)cn1`, the logD was 3.9.

For the compound `CCN(C)c1cncc(C(=O)NC2Cc3ccccc3C2)n1`, the logD came to 3.6.

In turn, `CC(C)(CNC(=O)c1cncc(N2CCCCC2)n1)c1ccccc1` had a logD of 4.4.

A further series can be described thus: Permeability in artificial membrane assessed as diffusion rate by PAMPA assay. Particulars: read-out: permeability. Format: ADME.
With `C[C@H]1CC[C@H](NC(=O)c2cnc(N3CCC(CO)CC3)cn2)CC1`, the Papp was found to be 25.5 ×10⁻⁶ cm/s.
